Data on ten compounds can be found in paper PMC11445910 (International Journal of Veterinary Science and Medicine, 2024).

The subject of test [1] is FMDV serotype A (NP05). In words: microbe, parasite or virus in culture. Format: cell-based, Foot-and-mouth disease virus.
The test system of test [2] is FMDV serotype A (NP05). In words: microbe, parasite or virus in culture. Format: cell-based. The following applies: Foot-and-mouth disease virus, BHK-21, read-out: Post-viral entry EC50.
Test [3] deals with FMDV serotype A (NP05). In words: microbe, parasite or virus in culture. Format: cell-based. The settings on record: Foot-and-mouth disease virus, BHK-21, read-out: Prophylactic EC50.
Test [4] relates to FMDV serotype A (NP05). Format: cell-based, Foot-and-mouth disease virus.
Test [5] concerns FMDV serotype A (NP05). In words: microbe, parasite or virus in culture. Format: cell-based, Foot-and-mouth disease virus. The source holds these as a separate data set.
Test [6] has as its system FMDV serotype A (NP05). Format: cell-based, Foot-and-mouth disease virus. This is another data set of the same source.
In test [7] the test system is FMDV serotype A (NP05). Format: cell-based, Foot-and-mouth disease virus. The source holds these as a separate data set.
Another test concerns FMDV 3Dpol. Format: cell-based, Foot-and-mouth disease virus.
The next test has as its system HCoV-OC43. The settings on record: read-out: EC50 against HCoV-OC43; cited from earlier work.
Another test has as its system HCoV-NL63. The following applies: read-out: EC50 against HCoV-NL63; cited from earlier work.
The subject of another test is MERS-CoV. The following applies: read-out: EC50 against MERS-CoV; cited from earlier work.
A further test has as its system MHV-A59. The settings on record: read-out: EC50 against MHV-A59; cited from earlier work.
A further test concerns SARS-CoV-2. The settings on record: read-out: EC50 against SARS-CoV-2; cited from earlier work.
The next test has as its system EBOV. The settings on record: read-out: IC50 (viral-like particle entry); cited from earlier work.
The next test concerns the target ZIKV NS5 RNA polymerase. The settings on record: read-out: IC50 (NS5 polymerase inhibition); cited from earlier work.
Another test has as its system enterovirus (EV) A71. The following applies: read-out: EC50 against enterovirus (EV) A71; cited from earlier work.
For test [8], the system named is HIV reverse transcriptase. The following applies: cited from earlier work.
Another test concerns FMDV serotype A. The settings on record: cited from earlier work.
Another test concerns CHIKV. The following applies: read-out: EC50 against CHIKV; cited from earlier work.
Another test relates to HBV. The following applies: read-out: IC50 against HBV; cited from earlier work.
The next test concerns Influenza virus H1N1. The settings on record: cited from earlier work.
For test [9], the system named is papain-like protease 2 protein. The settings on record: read-out: IC50 (papain-like protease 2 protein inhibition); cited from earlier work.
The test system of the next test is Influenza virus type A. The settings on record: cited from earlier work.
The next test concerns RSV. The settings on record: cited from earlier work.
For a further test, the target named is RdRp. The following applies: read-out: Binding affinity (RdRp inhibition using surface plasmon resonance assay); cited from earlier work.
Where [10] appears, read: Foot-and-mouth disease virus, BHK-21, read-out: Pre-viral entry EC50.
The mark [11] stands for this setting: Foot-and-mouth disease virus, BHK-21, read-out: Penetration EC50.

Values after ≈ are worked out from the molar mass of the structure shown. Like-named read-outs stand apart in the source and are kept apart here.

Turning to `CC[C@H]1CN2CCc3cc(OC)c(OC)cc3[C@@H]2C[C@@H]1C[C@H]1NCCc2cc(OC)c(OC)cc21` [EMT, Emetine, reference compound], the EC50 is 130 nM with FMDV serotype A (NP05) [1] (setting [10]); 240 ± 630 nM in the test with FMDV serotype A (NP05) [2]; 640 ± 200 nM with FMDV serotype A (NP05) [3]; 120 nM in the test with FMDV serotype A (NP05) [5] (setting [11]); 300 nM in the test on HCoV-OC43; 1430 nM in the test with HCoV-NL63. Moreover, the EC50 in the test with MERS-CoV is 340 nM; in the test on MHV-A59, 120 nM; in the test with SARS-CoV-2, 7.71 nM; with enterovirus (EV) A71, 40 nM. Besides, the “Effect on viral attachment (binding of FMDV)” value in the test on FMDV serotype A (NP05) [4] was “neither CPL nor EMT impeded the binding of FMDV”. Besides, the “% Virucidal effect (Virus titre reduction of log TCID50/ml), Low dose” value in the test on FMDV serotype A (NP05) [6] turned out to be 32.28%. In the test with FMDV serotype A (NP05) [6], the “log viral titre after treatment, high dose” value is on record as 2.16. The “log viral titre after treatment, low dose” value in the test on FMDV serotype A (NP05) [6] is 2.14. The “Viral load reduction (viral copy numbers)” value in the test with FMDV serotype A (NP05) [7] is “dose-dependent manner”. Besides, the “Negative-stranded RNA production” value with FMDV 3Dpol is recorded as “affected the production of negative-stranded RNA”. In addition, the values for the IC50 in the test with EBOV and at ZIKV NS5 RNA polymerase were 10200 nM and 121 nM, respectively. Moreover, in test [8], the “Reduction of HIV reverse transcriptase activity” value is recorded as “approximately 50%”.

For `C[C@H]1[C@H]2CC[C@H]3[C@@H]4CC=C5C[C@@H](N(C)C)CC[C@]5(C)[C@H]4CC[C@]23CN1C` [Conessine (CNS), Conessine], the EC50 in the test on HCoV-OC43 is 2340 nM; with HCoV-NL63, 10700 nM; with MERS-CoV, 4980 nM; with MHV-A59, 11500 nM.

With `NC(=O)c1ncc[nH]c1=O` [T-1105], the “IC50 against FMDV serotype A” value with FMDV serotype A is 1.11 µg/mL (≈ 7.98 µM). In addition, the IC50 in the test on FMDV serotype A (read-out: IC50 against FMDV serotype A) was 7970 nM.

Take `C[C@H]1CC[C@]2(NC1)O[C@H]1C[C@H]3[C@@H]4CC[C@H]5C[C@@H](O)CC[C@]5(C)[C@H]4CC[C@]3(C)[C@H]1[C@@H]2C` [Tomatidine (TMD), Tomatidine]: the EC50 with CHIKV was 1300 nM.

On to `C[C@@H]1CC[C@@]2(NC1)O[C@H]1C[C@H]3[C@@H]4CC=C5C[C@@H](O[C@@H]6O[C@H](CO)[C@@H](O[C@@H]7O[C@@H](C)[C@H](O)[C@@H](O)[C@H]7O)[C@H](O)[C@H]6O[C@@H]6O[C@@H](C)[C@H](O)[C@@H](O)[C@H]6O)CC[C@]5(C)[C@H]4CC[C@]3(C)[C@H]1[C@@H]2C` [Solamargine (SLG), Solamargine], for which the IC50 with HBV was 2170 nM.

Take `C/C=C1/CN2[C@@H]3C[C@@]45c6ccccc6N[C@]4(O3)[C@@H]2C[C@@H]1[C@H]5C(=O)OC` [Picrinine (PCN), Picrinine]: the “Reduction of haemagglutination titres” value with Influenza virus H1N1 is reported as “Reduction of haemagglutination titres at 1/480; 12.5 mg/kg of Alstonia scholaris (L.) crude extract”.

Take `CCOC(=O)/C=C/[C@H](C[C@@H]1CCNC1=O)NC(=O)[C@@H](CC(=O)[C@@H](NC(=O)c1cc(C)on1)C(C)C)Cc1ccc(F)cc1` [RPV, Rupintrivir]: the EC50 in the test on FMDV serotype A (NP05) [1] (read-out: Pre-viral entry EC50) is 10400 ± 1020 nM; with FMDV serotype A (NP05) [2], 3430 ± 540 nM; with FMDV serotype A (NP05) [5] (read-out: Penetration EC50), 2060 ± 310 nM.

For the compound `O=C1c2ccccc2-n2c1nc1ccccc1c2=O` [Tryptanthrin (TTT), Tryptanthrin], in test [9], the IC50 is 60 nM.

With Strictosamide [Strictosamide (STM)], the “IC50 against influenza virus type A” value in the test with Influenza virus type A is “IC50 of 25.68 µg/ml in MDCK cells IC50 of 12.50 µg/ml in Hep-2 cells”. For the same compound, the “IC50 against RSV” value in the test on RSV is given as “IC50 of 25.68 µg/ml in MDCK cells IC50 of 12.50 µg/ml in Hep-2 cells”.

On to `CC[C@H]1CN2CCc3cc(OC)c(OC)cc3[C@@H]2C[C@@H]1C[C@H]1NCCc2cc(O)c(OC)cc21` [CPL, Cephaeline], for which the EC50 in the test with FMDV serotype A (NP05) [1] (setting [10]) is 100 ± 100 nM; with FMDV serotype A (NP05) [2], 50 ± 130 nM; with FMDV serotype A (NP05) [3], 230 ± 650 nM; in the test with FMDV serotype A (NP05) [5] (setting [11]), 50 nM; in the test with SARS-CoV-2, 12.3 nM. The “Effect on viral attachment (binding of FMDV)” value in the test with FMDV serotype A (NP05) [4] is listed as “neither CPL nor EMT impeded the binding of FMDV”. The “% Virucidal effect (Virus titre reduction of log TCID50/ml), High dose” value with FMDV serotype A (NP05) [6] is reported as 79.59%. Moreover, the “% Virucidal effect (Virus titre reduction of log TCID50/ml), Low dose” value in the test with FMDV serotype A (NP05) [6] was 68.35%. In addition, the “log viral titre after treatment, high dose” value in the test with FMDV serotype A (NP05) [6] is listed as 1.00. For the same compound, the “log viral titre after treatment, low dose” value with FMDV serotype A (NP05) [6] is given as 1.00. For the same compound, the “Viral load reduction (viral copy numbers)” value in the test with FMDV serotype A (NP05) [7] is recorded as “dose-dependent manner”. For the same compound, in the test on FMDV 3Dpol, the “Negative-stranded RNA production” value is given as “affected the production of negative-stranded RNA”. Further, the Kd on RdRp was 8900 nM.

Broadly, the IC50 is the concentration that gives 50% inhibition.
